The source of these data is US8980830B2 (priority 2007, dated 2015).

A word on the IC50: it is the point on the concentration scale where inhibition reaches its midpoint.

This test addresses Glucagon Receptor (Homo sapiens, UniProt P47871). As to the kind of experiment: cAMP inhibition: antagonism of glucagon-induced cAMP at glucagon receptor. Further details: expressed in transfected cells; host or cells: HEK293. Type of test: cell-based.
The mark [1] stands for this setting: Glucagon antagonism IC50 (nM, inhibit 0.2-0.8 nM glucagon), Table 18.

Values joined by “and” are separate entries in the source; they are usually repeats but may differ in a detail not shown here. Equal values may be shown once. Read-outs that look alike come from different tables or passages of the source. Bridge positions count the residues as written; N and C are the ends. Square brackets hold non-standard residues; d marks the D form. Ends that are not written are not given here. Peptide text beside a SMILES is read from it. * marks the point of attachment. ξ: configuration not given here. MCA = alpha-methylhydrocinnamic acid (2-methyl-3-phenylpropanoic acid); Abu(4-SO3H) = N[C@@H](CCS(=O)(=O)O)C(=O)O; PhLac = O=C(O)[C@@H](O)Cc1ccccc1; Aad = N[C@@H](CCCC(=O)O)C(=O)O; ξPhLac = O=C(O)C(O)Cc1ccccc1; Carboxymethyl = O=C(O)C*; CH2CH2COOH = O=C(O)CC*

Sequence of Glucagon Receptor (P47871 26-477): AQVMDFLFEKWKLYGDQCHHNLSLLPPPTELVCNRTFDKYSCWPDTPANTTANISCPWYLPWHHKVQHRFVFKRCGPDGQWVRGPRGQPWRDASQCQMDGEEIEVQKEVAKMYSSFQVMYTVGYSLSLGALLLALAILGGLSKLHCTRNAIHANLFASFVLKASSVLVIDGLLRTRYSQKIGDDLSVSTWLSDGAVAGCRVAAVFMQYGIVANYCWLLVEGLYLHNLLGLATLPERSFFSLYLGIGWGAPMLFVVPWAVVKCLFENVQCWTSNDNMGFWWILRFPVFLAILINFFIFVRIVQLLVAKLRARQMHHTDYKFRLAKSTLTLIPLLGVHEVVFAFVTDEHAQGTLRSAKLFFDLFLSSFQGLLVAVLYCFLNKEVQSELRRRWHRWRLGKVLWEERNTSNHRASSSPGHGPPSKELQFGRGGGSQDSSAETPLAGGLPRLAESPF

For the compound `CSCC[C@H](NC(=O)[C@H](CC(C)C)NC(=O)[C@H](Cc1c[nH]c2ccccc12)NC(=O)[C@H](CCC(N)=O)NC(=O)[C@@H](NC(=O)[C@H](Cc1ccccc1)NC(=O)[C@H](CC(=O)O)NC(=O)[C@H](CCC(N)=O)NC(=O)[C@H](C)NC(=O)[C@H](CCCNC(=N)N)NC(=O)[C@H](CCCNC(=N)N)NC(=O)[C@H](CO)NC(=O)[C@H](CC(=O)O)NC(=O)[C@H](CC(C)C)NC(=O)[C@H](Cc1ccc(O)cc1)NC(=O)[C@H](CCCCN)NC(=O)[C@H](CO)NC(=O)[C@H](Cc1ccc(O)cc1)NC(=O)[C@H](CCCC(=O)O)NC(=O)[C@H](CO)NC(=O)[C@@H](NC(=O)[C@@H](N)Cc1ccccc1)[C@@H](C)O)C(C)C)C(=O)N[C@@H](CC(N)=O)C(=O)N[C@H](C(N)=O)[C@@H](C)O` [[hGlu^9]Glucagon(aa6-29)-NH2] (H-FTS[Aad]YSKYLDSRRAQDFVQWLMNT-NH2; N-terminus assumed), the “cAMP pA2” value (Table 9) is given as 6.27 ± 0.11.
Consider “FTSKYSKYLDSRRAQDFVQWLMNT-NH2 [[Lys^9]Glucagon(aa6-29)-NH2]”, for which the “cAMP pA2” value was found to be 6.58 ± 0.60.
Turning to `CC[C@H](C)[C@H](NC(=O)[C@H](Cc1ccccc1)NC(=O)[C@H](CCC(=O)O)NC(=O)[C@@H]1CCCCNC(=O)CC[C@H](NC(=O)[C@H](CC(=O)O)NC(=O)[C@H](CC(C)C)NC(=O)[C@H](Cc2ccc(O)cc2)NC(=O)[C@H](CCCCN)NC(=O)[C@H](CO)NC(=O)[C@H](Cc2ccc(O)cc2)NC(=O)[C@H](CC(=O)O)NC(=O)[C@H](CO)NC(=O)[C@@H](NC(=O)C(O)Cc2ccccc2)[C@@H](C)O)C(=O)N[C@@H](CCC(N)=O)C(=O)N[C@@H](C)C(=O)N[C@@H](C)C(=O)N1)C(=O)N[C@@H](C)C(=O)N[C@@H](Cc1c[nH]c2ccccc12)C(=O)N[C@@H](CC(C)C)C(=O)N[C@@H](CCSC)C(=O)N[C@@H](CC(=O)O)C(=O)N[C@H](C(N)=O)[C@@H](C)O` (some centres unmarked) [[PLA6, E16K20(lactam), GLP(23-32)]G(6-29)] (H-[ξPhLac]TSDYSKYLDEQAAKEFIAWLMDT-NH2; lactam 11-15), the IC50 under setting [1] was 11.7 nM and 73.5 nM.
Consider `CSCC[C@H](NC(=O)[C@H](CC(C)C)NC(=O)[C@H](Cc1c[nH]c2ccccc12)NC(=O)[C@H](CCC(N)=O)NC(=O)[C@@H](NC(=O)[C@H](Cc1ccccc1)NC(=O)[C@H](CC(=O)O)NC(=O)[C@H](CCC(N)=O)NC(=O)[C@H](C)NC(=O)[C@H](CCCNC(=N)N)NC(=O)[C@H](CCCNC(=N)N)NC(=O)[C@H](CO)NC(=O)[C@H](CC(=O)O)NC(=O)[C@H](CC(C)C)NC(=O)[C@H](Cc1ccc(O)cc1)NC(=O)[C@H](CCCCN)NC(=O)[C@H](CO)NC(=O)[C@H](Cc1ccc(O)cc1)NC(=O)[C@H](CSCC(=O)O)NC(=O)[C@H](CO)NC(=O)[C@@H](NC(=O)[C@@H](N)Cc1ccccc1)[C@@H](C)O)C(C)C)C(=O)N[C@@H](CC(N)=O)C(=O)N[C@H](C(N)=O)[C@@H](C)O` [[(CSA-1)^9]Glucagon(aa6-29)-NH2, [C^9(SCH2COOH)]Glucagon(aa6-29)-NH2] (H-FTSC(Carboxymethyl)YSKYLDSRRAQDFVQWLMNT-NH2; N-terminus assumed), for which, under “Table 9”, the “cAMP pA2” value is listed as 6.68 ± 1.05.
In the case of `CSCC[C@H](NC(=O)[C@H](CC(C)C)NC(=O)[C@H](Cc1c[nH]c2ccccc12)NC(=O)[C@H](CCC(N)=O)NC(=O)[C@@H](NC(=O)[C@H](Cc1ccccc1)NC(=O)[C@H](CC(=O)O)NC(=O)[C@H](CCC(N)=O)NC(=O)[C@H](C)NC(=O)[C@H](CCCNC(=N)N)NC(=O)[C@H](CCCNC(=N)N)NC(=O)[C@H](CO)NC(=O)[C@H](CC(=O)O)NC(=O)[C@H](CC(C)C)NC(=O)[C@H](Cc1ccc(O)cc1)NC(=O)[C@H](CCCCN)NC(=O)[C@H](CO)NC(=O)[C@H](Cc1ccc(O)cc1)NC(=O)[C@H](CCC(=O)O)NC(=O)[C@H](CO)NC(=O)[C@@H](NC(=O)[C@H](Cc1ccccc1)OC(=O)[C@@H](NC(=O)CNC(=O)[C@H](CCC(N)=O)NC(=O)[C@H](CO)NC(=O)[C@@H](N)Cc1c[nH]cn1)[C@@H](C)O)[C@@H](C)O)C(C)C)C(=O)N[C@@H](CC(N)=O)C(=O)N[C@H](C(N)=O)[C@@H](C)O` [[Thr5-O-PLA6,E9]Glucagon(1-29)] (H-HSQGT[PhLac]TSEYSKYLDSRRAQDFVQWLMNT-NH2; N-terminus assumed), the IC50 (Glucagon antagonism IC50(nM, inhibit 0.5nM G), Table 25) came out at 14.2 ± 7.89 nM.
As for `CC(C)C[C@H](NC(=O)[C@H](Cc1ccc(O)cc1)NC(=O)[C@H](CCCCN)NC(=O)[C@H](CO)NC(=O)[C@H](Cc1ccc(O)cc1)NC(=O)[C@H](CCS(=O)(=O)O)NC(=O)[C@H](CO)NC(=O)[C@@H](NC(=O)[C@@H](NC(=O)CNC(=O)[C@H](CCC(N)=O)NC(=O)[C@@H](N)CO)[C@@H](C)O)[C@@H](C)O)C(=O)N[C@@H](CC(=O)O)C(=O)N[C@@H](CO)C(=O)N[C@@H](CCCNC(=N)N)C(=O)N[C@@H](CCCNC(=N)N)C(=O)N[C@@H](C)C(=O)N[C@@H](CCC(N)=O)C(=O)N[C@@H](CC(=O)O)C(=O)N[C@@H](Cc1ccccc1)C(=O)N[C@H](C(=O)N[C@@H](CCC(N)=O)C(=O)N[C@@H](Cc1ccccc1)C(=O)N[C@@H](CC(C)C)C(=O)N[C@@H](CC(C)C)C(=O)N[C@@H](CC(N)=O)C(=O)N[C@H](C(N)=O)[C@@H](C)O)C(C)C` [[desHis^1, desPhe^6, hCys^9(SO3−), Phe^25, Leu^27] Glucagon-NH2] (H-SQGTTS[Abu(4-SO3H)]YSKYLDSRRAQDFVQFLLNT-NH2; N-terminus assumed), the “glucagon antagonism, in words” value was “some level of antagonism”.
In the case of `CSCC[C@H](NC(=O)[C@H](CC(C)C)NC(=O)[C@H](Cc1c[nH]c2ccccc12)NC(=O)[C@H](CCC(N)=O)NC(=O)[C@@H](NC(=O)[C@H](Cc1ccccc1)NC(=O)[C@H](CC(=O)O)NC(=O)[C@@H]1CCCCNC(=O)CC[C@H](NC(=O)[C@H](CC(=O)O)NC(=O)[C@H](CC(C)C)NC(=O)[C@H](Cc2ccc(O)cc2)NC(=O)[C@H](CCCCN)NC(=O)[C@H](CO)NC(=O)[C@H](Cc2ccc(O)cc2)NC(=O)[C@H](CCC(=O)O)NC(=O)[C@H](CO)NC(=O)[C@@H](NC(=O)[C@@H](O)Cc2ccccc2)[C@@H](C)O)C(=O)N[C@@H](CCCNC(=N)N)C(=O)N[C@@H](CCCNC(=N)N)C(=O)N[C@@H](C)C(=O)N1)C(C)C)C(=O)N[C@@H](CC(N)=O)C(=O)N[C@H](C(=O)NCC(=O)N1CCC[C@H]1C(=O)N[C@@H](CO)C(=O)N[C@@H](CO)C(=O)NCC(=O)N[C@@H](C)C(=O)N1CCC[C@H]1C(=O)N1CCC[C@H]1C(=O)N1CCC[C@H]1C(=O)N[C@@H](CO)C(N)=O)[C@@H](C)O` [[PLA6, E9, E16K20(Lactam)]], under “Glucagon antagonism IC50 (nM, inhibit 0.2-0.8 nM glucagon), Table 16, combined results of three assays”, the IC50 came out at 20.5 ± 2.5 nM.
For “[PLA6, E9,E16K20(Lactam), C24(20 kDa)]G(6-29) ([PhLac]TSEYSKYLDERRAKDFVC(PEG 20 kDa)WLMNT; lactam 11-15)”, the “Glucagon antagonism IC50(nM) (inhibit 0.2-0.8 nM glucagon)” value is on record as “Not detect”.
For the compound “[MCA^6, E^9, C^24(20kDaPEG)]Glucagon(aa6-29)-NH2 ([MCA]TSEYSKYLDSRRAQDFVC(PEG 20 kDa)WLMNT-NH2)”, the “IC50 (nM) (cAMP, inhibit 0.2 mM Glucagon)” value (Table 12) is “no antagonism”.
For “[PLA6, K12E16(Lactam), D28,CEX-C40(20 kDa)]G(6-40) ([PhLac]TSDYSKYLDERRAQDFVQWLMDTGPSSGAPPPSC(PEG 20 kDa); lactam 7-11)”, the “Glucagon antagonism IC50(nM) (inhibit 0.2-0.8 nM glucagon)” value is recorded as “Not antagonist (n = 1)”.
As to `CSCC[C@H](NC(=O)[C@H](CC(C)C)NC(=O)[C@H](Cc1c[nH]c2ccccc12)NC(=O)[C@H](CCC(N)=O)NC(=O)[C@@H](NC(=O)[C@H](Cc1ccccc1)NC(=O)[C@H](CC(=O)O)NC(=O)[C@H](CCC(N)=O)NC(=O)[C@H](C)NC(=O)[C@H](CCCNC(=N)N)NC(=O)[C@H](CCCNC(=N)N)NC(=O)[C@H](CO)NC(=O)[C@H](CC(=O)O)NC(=O)[C@H](CC(C)C)NC(=O)[C@H](Cc1ccc(O)cc1)NC(=O)[C@H](CCCCN)NC(=O)[C@H](CO)NC(=O)[C@H](Cc1ccc(O)cc1)NC(=O)[C@H](CSCCC(=O)O)NC(=O)[C@H](CO)NC(=O)[C@@H](NC(=O)[C@@H](N)Cc1ccccc1)[C@@H](C)O)C(C)C)C(=O)N[C@@H](CC(N)=O)C(=O)N[C@H](C(N)=O)[C@@H](C)O` [[(CSA-2)^9]Glucagon(aa6-29)-NH2, [C^9(SCH2CH2COOH)]Glucagon(aa6-29)-NH2] (H-FTSC(CH2CH2COOH)YSKYLDSRRAQDFVQWLMNT-NH2; N-terminus assumed), the “cAMP pA2” value (Table 9) is listed as 6.64 ± 0.29.
With `CSCC[C@H](NC(=O)[C@H](CC(C)C)NC(=O)[C@H](Cc1c[nH]c2ccccc12)NC(=O)[C@H](CCC(N)=O)NC(=O)[C@@H](NC(=O)[C@H](Cc1ccccc1)NC(=O)[C@H](CC(=O)O)NC(=O)[C@H](CCC(N)=O)NC(=O)[C@H](C)NC(=O)[C@H](CCCNC(=N)N)NC(=O)[C@H](CCCNC(=N)N)NC(=O)[C@H](CO)NC(=O)[C@H](CC(=O)O)NC(=O)[C@H](CC(C)C)NC(=O)[C@H](Cc1ccc(O)cc1)NC(=O)[C@H](CCCCN)NC(=O)[C@H](CO)NC(=O)[C@H](Cc1ccc(O)cc1)NC(=O)[C@H](CCS(=O)(=O)O)NC(=O)[C@H](CO)NC(=O)[C@@H](NC(=O)[C@@H](N)Cc1ccccc1)[C@@H](C)O)C(C)C)C(=O)N[C@@H](CC(N)=O)C(=O)N[C@H](C(N)=O)[C@@H](C)O` [[hCys^9(SO3H)]Glucagon(aa6-29)-NH2] (H-FTS[Abu(4-SO3H)]YSKYLDSRRAQDFVQWLMNT-NH2; N-terminus assumed), under “Table 9”, the “cAMP pA2” value worked out at 7.16 ± 0.51.
Under setting [1], `CC[C@H](C)[C@H](NC(=O)[C@H](Cc1ccccc1)NC(=O)[C@H](CCC(=O)O)NC(=O)[C@@H]1CCCCNC(=O)CC[C@H](NC(=O)[C@H](CC(=O)O)NC(=O)[C@H](CC(C)C)NC(=O)[C@H](Cc2ccc(O)cc2)NC(=O)[C@H](CCCCN)NC(=O)[C@H](CO)NC(=O)[C@H](Cc2ccc(O)cc2)NC(=O)[C@H](CCC(=O)O)NC(=O)[C@H](CO)NC(=O)[C@@H](NC(=O)[C@H](Cc2ccccc2)NC(=O)[C@@H](NC(=O)CNC(=O)[C@H](CCC(=O)O)NC(=O)[C@H](C)N)[C@@H](C)O)[C@@H](C)O)C(=O)N[C@@H](CCC(N)=O)C(=O)N[C@@H](C)C(=O)N[C@@H](C)C(=O)N1)C(=O)N[C@@H](C)C(=O)N[C@@H](Cc1c[nH]c2ccccc12)C(=O)N[C@@H](CC(C)C)C(=O)N[C@@H](CCSC)C(=O)N[C@@H](CC(=O)O)C(=O)N[C@H](C(N)=O)[C@@H](C)O` [[A2E3, E9, E16K20(Lactam), GLP(23-32)]G(2-29)] (H-AEGTFTSEYSKYLDEQAAKEFIAWLMDT-NH2; lactam 15-19; N-terminus assumed) yielded an IC50 of 423 nM. The “character of antagonism (partial antagonist, wrapped cell)” value (Table 18) is “partial”.
